# US12435037B2, “Acetylsalicylic acid derivative and application thereof” (Zhejiang Hanmai Pharmaceutical Technology Co., Ltd., priority 2018, dated 2025)
# How the values were obtained:
# [1] = test system: monkey platelet aggregation; assay: Inhibitory effect on monkey platelet aggregation after transdermal administration; assay type: in vivo; conditions: cynomolgus monkeys, transdermal daily for four weeks (70 mg/kg; comparator 60 mg/kg), inducer 1 mM arachidonic acid
# Description: The dose volume for a monkey was calculated based on its weight. The hair on the monkey's back was shaved, and the drug was evenly applied to the bare skin. The drug was administered continuously every day for four weeks. Blank blood was collected before administration, and blood was collected once a week after administration to detect the platelet aggregation ability (the inducer was 1 mM arachidonic acid).
# in vitro = conditions: monkey, 10% monkey plasma diluent
# [2] = Metabolism in 10% diluted plasma, rat; conditions: 10% diluted rat plasma
# [3] = Metabolism in 10% diluted plasma, mouse; conditions: 10% diluted mouse plasma
# [4] = Plasma metabolic stability test in 10% monkey plasma diluent; conditions: 37° C.
smiles,measurement,setting,value
CCN(CC)CCOC(=O)c1ccccc1OC(C)=O.Cl,inhibitory effect on platelet aggregation,[1],cannot inhibit platelet aggregation effectively
same,platelet aggregation rate,[1],about 50%
same,"C0 at 0 min, 1 μM/mL",in vitro,262 µg/mL
same,Highest acetylsalicylic acid concentration in plasma,[2],BLOQ
same,Highest acetylsalicylic acid concentration in plasma,[3],BLOQ
same,concentration of the parent drug,[4]; 10 min,3.09 µg/mL
same,concentration of the parent drug,[4]; 30 min,undetectable
